Laboratory results published in the supplement of paper PMC10307832.

How the values were obtained:
Experiment in all cases: relative viability (nuclei count vs DMSO), 5 days (fraction); higher = more cells survive
[1] = compound: C1=CC=C(C(=C1)C2=CC=C(C=C2)C3=CSC4=C3C(=C(C(=O)N4)C#N)O)O + Cc1nc(Nc2ncc(C(=O)Nc3c(C)cccc3Cl)s2)cc(N2CCN(CCO)CC2)n1 [Dasatinib] (partner 0.075 µM)
In short: (§1)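 Lung cancer cell lines were seeded in 1536-well plates and dosed by pin tool the next day, with either a single drug or a fixed anchor-drug dose combined with five library-drug doses (not always all listed) spaced in √10 steps. Five days later, one step fixed the cells and stained their nuclei (final 0.05% Triton X-100, 1% formaldehyde, 1 ug/ml Hoechst), and nuclei were counted on 4× images. Relative viability is the nuclei count in treated wells divided by the count in vehicle wells, and each value is the median of duplicate plates.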

TGX 221 + Palbociclib = compound: CC1=CN2C(=O)C=C(N=C2C(=C1)C(C)NC3=CC=CC=C3)N4CCOCC4 [TGX 221] + CC(=O)c1c(C)c2cnc(Nc3ccc(N4CCNCC4)cn3)nc2n(C2CCCC2)c1=O [Palbociclib] (partner 0.5 µM)
In short: as §1

TGX 221 + Navitoclax = compound: CC1=CN2C(=O)C=C(N=C2C(=C1)C(C)NC3=CC=CC=C3)N4CCOCC4 [TGX 221] + CC1(C)CCC(c2ccc(Cl)cc2)=C(CN2CCN(c3ccc(C(=O)NS(=O)(=O)c4ccc(N[C@H](CCN5CCOCC5)CSc5ccccc5)c(S(=O)(=O)C(F)(F)F)c4)cc3)CC2)C1 [Navitoclax] (partner 0.5 µM)
In short: as §1

Ricolinostat + AZD7762 = compound: O=C(CCCCCCNC(=O)c1cnc(N(c2ccccc2)c2ccccc2)nc1)NO [Ricolinostat] + NC(=O)Nc1cc(-c2cccc(F)c2)sc1C(=O)N[C@H]1CCCNC1 [AZD7762] (partner 0.2 µM)
In short: as §1

Cell Line	relative viability ([1]; first compound 0.08 µM)	relative viability ([1]; first compound 0.253 µM)	relative viability ([1]; first compound 0.8 µM)	relative viability ([1]; first compound 2.53 µM)	relative viability ([1]; first compound 8 µM)	relative viability (TGX 221 + Palbociclib; first compound 0.08 µM)	relative viability (TGX 221 + Palbociclib; first compound 0.253 µM)	relative viability (TGX 221 + Palbociclib; first compound 0.8 µM)	relative viability (TGX 221 + Palbociclib; first compound 2.53 µM)	relative viability (TGX 221 + Palbociclib; first compound 8 µM)	relative viability (TGX 221 + Navitoclax; first compound 0.08 µM)	relative viability (TGX 221 + Navitoclax; first compound 0.253 µM)	relative viability (TGX 221 + Navitoclax; first compound 0.8 µM)	relative viability (TGX 221 + Navitoclax; first compound 2.53 µM)	relative viability (TGX 221 + Navitoclax; first compound 8 µM)	relative viability (Ricolinostat + AZD7762; first compound 0.08 µM)	relative viability (Ricolinostat + AZD7762; first compound 0.253 µM)	relative viability (Ricolinostat + AZD7762; first compound 0.8 µM)	relative viability (Ricolinostat + AZD7762; first compound 2.53 µM)
HCC-827	0.315	0.469	0.313	0.403	0.224	0.489	0.468	0.487	0.436	0.425	0.951	1.02	1.02	1.05	0.982	0.171	0.223	0.167	0.219
HOP-62	0.528	0.573	0.685	0.67	0.501	0.429	0.449	0.484	0.509	0.43	1.04	1.06	1.09	1.12	1.06	0.352	0.521	0.53	0.277
LC-2-ad	0.367	0.545	0.426	0.694	0.475	0.478	0.519	0.483	0.503	0.447	0.514	–	0.424	0.348	0.361	0.842	0.883	0.82	0.745
LCLC-97TM1	0.767	0.979	0.98	0.936	0.806	0.184	0.263	0.238	0.206	0.232	0.389	0.264	0.42	0.464	0.481	–	0.378	0.265	0.34
LK-2	–	0.269	0.276	0.28	0.253	0.647	0.612	0.621	0.673	0.833	0.98	0.84	0.81	0.996	0.948	0.254	0.375	0.38	0.348
LOU-NH91	0.493	0.589	0.506	0.542	0.489	0.612	0.511	0.448	0.492	0.517	0.705	0.647	0.707	0.681	0.544	–	0.788	0.796	0.739
LU99A	0.528	0.608	0.61	0.563	0.442	0.383	0.344	0.373	0.405	0.366	0.647	0.756	0.824	0.799	0.811	0.324	0.378	0.253	0.159
LXF-289	0.185	0.188	0.223	0.23	0.231	0.595	0.628	0.612	0.641	0.568	0.966	0.967	0.929	0.882	0.945	1.07	1.07	1.11	1.06
NCI-H23	0.654	0.677	0.755	1.01	0.604	0.479	0.441	0.424	0.479	0.389	0.753	0.763	0.832	0.608	0.713	0.332	0.281	0.223	0.154
NCI-H322M	0.245	0.244	0.234	0.243	0.273	0.492	0.484	0.478	0.459	0.388	1.13	1.19	1.14	0.911	1.33	0.432	0.663	0.512	0.49
NCI-H441	0.437	0.626	0.582	0.636	0.538	0.239	0.203	0.217	0.185	0.21	0.494	0.529	0.599	0.998	0.797	0.982	1.06	0.924	0.801
NCI-H460	0.37	0.406	0.485	0.577	0.506	0.101	0.179	0.159	0.228	0.168	1.04	1.02	1.24	1.19	1.07	0.589	0.582	0.587	0.322
NCI-H596	0.568	0.678	0.713	0.557	0.476	–	–	–	–	–	0.996	0.863	0.969	0.902	0.886	0.965	1.12	1.08	0.686
NCI-H1703	–	–	–	–	–	–	–	–	–	–	1.05	0.822	0.969	0.97	0.633	–	0.132	–	0.11
NCI-H2342	0.315	0.345	0.309	0.354	0.284	0.541	0.529	0.492	0.517	0.531	–	–	–	–	–	0.413	0.443	0.531	0.451
SW 900	0.596	0.937	0.594	0.361	0.531	–	0.429	0.427	0.356	0.295	–	–	–	–	–	0.632	0.534	0.513	0.369
